From patent publication US20260183242A1, “FORMULATIONS COMPRISING A COMBINATION OF ACID-NEUTRALIZING POLYMERIC AND NON-POLYMERIC SUBSTANCES FOR ORAL ADMINISTRATION OF ACTIVE AGENTS” (Entera Bio Ltd., priority 2023, published 2026)
Like-named read-outs stand apart in the source and are kept apart here.

Experiments:
[1] = cited from earlier work
[2] = pH upon addition of test substance to 0.1 M HCl solution (pH 1.2), pH meter; assay type: physicochemical
Method: The solution pH was determined using an MP-103 pH-meter (MRC, Israel) equipped with ELC-10-00 electrode (MRC, Israel) or with a thin electrode HI1083 (HANNA instruments Inc.), shortly after dissolution and up to 26 hours later in order to ensure that the pH remained stable. The highest pH value obtained during the experimental time period was recorded in order to compare the acid-neutralizing capacity of each substance.
SNAC and the basic polymers sodium alginate, sodium carboxymethylcellulose in non-crosslinked (Na-CMC) and crosslinked (croscarmellose sodium, CCS) forms, and sodium starch glycolate (SSG) were dissolved in various volumes of 0.1 M HCl solution (pH 1.2) at concentrations of 1, 2, 4, 10, 20, 50, 100 and 150 mg/ml, and the solution pH was determined using an MP-103 pH-meter (MRC, Israel) equipped with ELC-10-00 electrode (MRC, Israel), as described in the Materials and Methods section hereinabove.
In order to obtain a beneficial rise in pH with a reduced loss of the active form of the absorption enhancer, the effect of various concentrations of different polymers containing carboxylate groups (sodium alginate, sodium starch glycolate, sodium carboxymethylcellulose, and croscarmellose sodium) on pH upon addition to a 0.1 M HCl solution (pH 1.2) was also evaluated. FIG. 3A presents pH values determined using an MP-103 pH-meter (MRC, Israel) equipped with ELC-10-00 electrode (MRC, Israel) and FIG. 3B presents pH values determined using an MP-103 pH-meter (MRC, Israel) equipped with a thin electrode HI1083 (HANNA instruments Inc.).

[3] = In vivo pig model: absorption of active agent from SNAC/SSG tablets with or without small proton-accepting agent; set-up: species or system mini-pigs; conditions: both sexes, minipig; for Cmax: mini-pigs, preliminary data
Method: The effect of combination of SNAC, sodium starch glycolate (SSG) as an exemplary alkaline polymer and a small molecule proton-accepting agent (Sodium carbonate, arginine and/or Sodium Decanoate (C10)) on absorption of a therapeutically active agent was assessed in an in vivo pig model, which allows testing of orally administered unit dosage forms with conventional dimensions that are applicable also in humans. The following proteinaceous therapeutically active agents were tested: lixisenatide, octreotide, desmopressin, salmon calcitonin, PTH (1-34), leuprolide.
All formulation constituents were in a dry powder form and mixed geometrically using mortar and pestle. Thereafter, round flat tablets were prepared from the mixes using a punch and dye and dental manual press.
The obtained tablets were administered at monitored conditions with the aid of endoscope into the stomachs of 2 male and 2 female mini-pigs (about 45 kg) for each tested group on different visits. Pigs were deprived of food the night before the experiments and during the experiment and deprived of water an hour before the experiment and during the experiment.
Blood samples were taken from the jugular vein through an indwelling cannula at predetermined time points during the first hour post-dose (which reflects the absorption phase). Plasma was separated and the concentration of the tested model molecules in plasma was quantified using a suitable technique.
hPTH (1-34) was quantified using a commercially available Elisa kit for the determination of hPTH (1-34) in plasma or cell culture media (Quidel Corp. Athens, OH, USA; Cat #60-3900).
Octreotide was quantified using a commercially available Elisa kit for the determination of octreotide in plasma or cell culture media (BMA Biomedicals, Augst, Switzerland. Cat #S-1341).
Formulations containing the same therapeutically active agents were also formulated with 11% SSG and typically included about 0.3-0.5% by weight of the active agent, 85-90% by weight SNAC, and magnesium stearate as a lubricant (about 1% by weight), and the total weight of the tablet was 90-95 mg.

pepsin = test: Proteolysis of hPTH (1-34) by pepsin at various pH values; assay type: in vitro ADME; conditions: 150 μg/ml pepsin, 37° C., 3 minutes; media pH 2-7
Method: The effect of pH on peptide proteolysis by pepsin was determined by incubating 13.5 μg/ml human parathyroid hormone (1-34) (hPTH (1-34)) with 150 μg/ml pepsin, at various pH values, and determining the percentage of hPTH (1-34) which remained. The amount of hPTH (1-34) remaining upon addition to 150 μg/ml pepsin at 37° C. was determined in media with different pH values, followed by immediate (10 second) vortex and centrifugation for 3 minutes at 4° C., 4000 RCF. The following media were used: simulated gastric fluid (pH 2), prepared from 0.01 M HCl and NaCl; phthalate buffer (pH 4 or 5); and phosphate buffer (pH 6 or 7).

[4] = drug alone, without absorption enhancer; cited from earlier work

Which “T1/2 (IV half-life)” value ([1]; in vivo, iv) does the source give for CCNC(=O)[C@@H]1CCCN1C(=O)[C@H](CCCNC(=N)N)NC(=O)[C@H](CC(C)C)NC(=O)[C@@H](CC(C)C)NC(=O)[C@H](Cc1ccc(O)cc1)NC(=O)[C@H](CO)NC(=O)[C@H](Cc1c[nH]c2ccccc12)NC(=O)[C@H](Cc1c[nH]cn1)NC(=O)[C@@H]1CCC(=O)N1 [Leuprolide, leuprolide] here?
The value was “about 3 hours”.

What does the source list for O=C(O)CCCCCCCNC(=O)c1ccccc1O [SNAC, sodium 8-N-(2-hydroxybenzoyl)aminocaprylate]?
pH 5 minutes after dissolution ([2]; 10 mg/ml SNAC added to HCl solution (pH 1.2)): about 1.5; pH 5 minutes after dissolution ([2]; 20 mg/ml SNAC added to HCl solution (pH 1.2)): 6.5; pH 5 minutes after dissolution ([2]; 100 mg/ml SNAC added to HCl solution (pH 1.2)): about 7.5

For NC(=O)CC[C@@H]1NC(=O)[C@H](Cc2ccccc2)NC(=O)[C@H](Cc2ccc(O)cc2)NC(=O)CCSSC[C@@H](C(=O)N2CCC[C@H]2C(=O)N[C@H](CCCN=C(N)N)C(=O)NCC(N)=O)NC(=O)[C@H](CC(N)=O)NC1=O [desmopressin], which “T1/2 (IV half-life)” value ([1]; in vivo, iv) is on record?
Its value is 3 to 5 h.

What does the source list for CC[C@H](C)[C@H](NC(=O)[C@H](CCC(=O)O)NC(=O)[C@H](CO)NC(=O)[C@@H](NC(=O)[C@@H](N)CO)C(C)C)C(=O)N[C@@H](CCC(N)=O)C(=O)N[C@@H](CC(C)C)C(=O)N[C@@H](CCSC)C(=O)N[C@@H](Cc1cnc[nH]1)C(=O)N[C@@H](CC(N)=O)C(=O)N[C@@H](CC(C)C)C(=O)NCC(=O)N[C@@H](CCCCN)C(=O)N[C@@H](Cc1cnc[nH]1)C(=O)N[C@@H](CC(C)C)C(=O)N[C@@H](CC(N)=O)C(=O)N[C@@H](CO)C(=O)N[C@@H](CCSC)C(=O)N[C@@H](CCC(=O)O)C(=O)N[C@@H](CCCN=C(N)N)C(=O)N[C@H](C(=O)N[C@@H](CCC(=O)O)C(=O)N[C@@H](Cc1c[nH]c2ccccc12)C(=O)N[C@@H](CC(C)C)C(=O)N[C@@H](CCCN=C(N)N)C(=O)N[C@@H](CCCCN)C(=O)N[C@@H](CCCCN)C(=O)N[C@@H](CC(C)C)C(=O)N[C@@H](CCC(N)=O)C(=O)N[C@@H](CC(=O)O)C(=O)N[C@H](C(=O)N[C@@H](Cc1cnc[nH]1)C(=O)N[C@@H](CC(N)=O)C(=O)N[C@@H](Cc1ccccc1)C(=O)O)C(C)C)C(C)C [hPTH (1-34), teriparatide]?
T1/2 (IV half-life) ([1]; intravenous): about 5 minutes; AUC(0-t) ([3]; AUClast): 0.164 ng·h/mL; AUC(0-t) ([3]; mean AUClast): 0.0978 ng·h/mL; pH at which proteolysis by pepsin was inhibited (pepsin): ≥ 6

For C[C@@H](O)[C@@H]1NC(=O)[C@H](CCCCN)NC(=O)[C@@H](Cc2c[nH]c3ccccc23)NC(=O)[C@H](Cc2ccccc2)NC(=O)[C@@H](NC(=O)[C@H](N)Cc2ccccc2)CSSC[C@@H](C(=O)N[C@H](CO)[C@@H](C)O)NC1=O [octreotide], which “T1/2 (IV half-life)” value ([1]; intravenous) is on record?
The value was “about 1.5 hours”.

What about the Cmax ([3]; octreotide 0.3-0.5%, SNAC 85-90%, about 11% SSG, magnesium stearate, no PAA, read-out: mean Cmax) of the same compound?
Its Cmax is 2.09 ng/mL.

And the Cmax ([3]; octreotide, SSG 11% by weight formulation further including sodium decanoate (C10), read-out: Cmax)?
Its Cmax is 2.94 ng/mL.

For CC[C@H](C)[C@H](NC(=O)[C@H](Cc1ccccc1)NC(=O)[C@H](CC(=O)O)NC(=O)[C@H](CCCNC(=N)N)NC(=O)[C@H](C)NC(=O)[C@H](C)NC(=O)[C@H](CC(C)C)NC(=O)[C@H](CC(N)=O)NC(=O)[C@H](CC(=O)O)NC(=O)[C@H](CC(C)C)NC(=O)[C@@H](NC(=O)[C@@H](NC(=O)[C@H](CC(N)=O)NC(=O)[C@H](CCSC)NC(=O)[C@H](CCC(=O)O)NC(=O)[C@H](CC(=O)O)NC(=O)[C@H](CO)NC(=O)[C@H](Cc1ccccc1)NC(=O)[C@H](CO)NC(=O)CNC(=O)[C@H](CC(=O)O)NC(=O)CNC(=O)[C@@H](N)Cc1c[nH]cn1)[C@@H](C)O)[C@@H](C)CC)C(=O)N[C@@H](CC(N)=O)C(=O)N[C@@H](Cc1c[nH]c2ccccc12)C(=O)N[C@@H](CC(C)C)C(=O)N[C@H](C(=O)N[C@@H](CCC(N)=O)C(=O)N[C@H](C(=O)N[C@@H](CCCCN)C(=O)N[C@H](C(=O)N[C@H](C(=O)N[C@@H](CC(=O)O)C(=O)O)[C@@H](C)O)[C@@H](C)CC)[C@@H](C)O)[C@@H](C)CC [teduglutide], which “oral (PO) bioavailability” value [4] is on record?
Its value is “negligible”.

For lixisenatide, which “T1/2 (IV half-life)” value ([1]; in vivo, iv) is on record?
Its value is “about 3 hours”.

Which “T1/2 (IV half-life)” value ([1]; in vivo, iv) does the source give for salmon calcitonin here?
The value was 1 to 1.5 h.
